Test results reported in patent US20210078972A1, “QUINOLINE OR QUINAZOLINE COMPOUND AND APPLICATION THEREOF” (HAIHE BIOPHARMA CO., LTD., priority 2018, published 2021).

Key:
Type in all cases: biochemical
Flt3 kinase = target: T1, Flt3 kinase (Homo sapiens, UniProt P36888); test: Flt3 kinase inhibition, Z'-LYTE FRET; conditions: ATP 500 μM
T1 construct: purchased life PV6253
T1 sequence (P36888 27-993): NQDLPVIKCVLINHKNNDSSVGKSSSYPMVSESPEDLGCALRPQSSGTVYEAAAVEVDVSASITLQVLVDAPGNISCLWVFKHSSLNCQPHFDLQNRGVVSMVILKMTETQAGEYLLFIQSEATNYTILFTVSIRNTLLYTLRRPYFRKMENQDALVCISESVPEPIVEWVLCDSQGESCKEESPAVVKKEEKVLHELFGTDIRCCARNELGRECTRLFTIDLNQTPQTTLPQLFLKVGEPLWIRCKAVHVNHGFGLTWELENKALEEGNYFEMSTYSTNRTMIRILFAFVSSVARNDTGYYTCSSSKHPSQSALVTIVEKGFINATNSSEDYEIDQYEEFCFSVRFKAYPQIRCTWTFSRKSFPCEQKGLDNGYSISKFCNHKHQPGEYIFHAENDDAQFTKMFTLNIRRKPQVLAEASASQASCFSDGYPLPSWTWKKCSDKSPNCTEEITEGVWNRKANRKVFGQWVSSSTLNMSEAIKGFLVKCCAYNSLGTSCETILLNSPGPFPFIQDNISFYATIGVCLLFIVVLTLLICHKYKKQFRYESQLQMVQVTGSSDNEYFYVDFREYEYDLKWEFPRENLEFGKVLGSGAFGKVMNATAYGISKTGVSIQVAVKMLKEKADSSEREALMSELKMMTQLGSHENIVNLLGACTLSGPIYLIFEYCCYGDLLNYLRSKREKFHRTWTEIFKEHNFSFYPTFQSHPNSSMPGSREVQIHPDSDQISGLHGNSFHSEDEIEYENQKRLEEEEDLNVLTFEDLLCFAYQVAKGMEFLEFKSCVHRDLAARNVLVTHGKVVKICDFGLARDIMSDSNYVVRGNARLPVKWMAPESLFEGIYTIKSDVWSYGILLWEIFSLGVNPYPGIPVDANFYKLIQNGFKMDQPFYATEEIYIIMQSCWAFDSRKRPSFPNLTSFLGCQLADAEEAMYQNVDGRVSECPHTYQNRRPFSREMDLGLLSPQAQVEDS
Excerpt: (§1) Detection of the activity of kinase: the inhibitory activities of the compounds against Flt3 kinase (life, PV6253) were detected through a second-order reaction by the Z′-LYTE™ technology (detected by fluorescence, enzyme-coupled form, based on the difference in a sensitivity of phosphorylated and non-phosphorylated polypeptides to proteolytic cleavage), based on the principle of fluorescence resonance energy transfer (FRET), using Z′-LYTE™ FRET peptide substrate (Z′-LYTE™ Tyrosine 2 Peptide Substrate, Invitrogen, PV3191).
Enzymatic reaction: To a 384-well plate were added 5 μL of enzyme-substrate system (50 mM HEPES, pH 7.5, 0.01% BRU-35, 10 mM MgC2, 1 mM EGTA), 2.5 μL of a compound (concentration gradient) and 2.5 μL of a mixed solution of ATP (a final concentration of a substrate Z′-LYTE™ Tyrosine 2 Peptide Substrate was 2 μM, and a final concentration of ATP was 500 μM), and then the plate was incubated at 37° C. in the dark for 1 h.
Detecting reaction: 5 μL of Development Solution (1:64 dilution) was added to each well and the plate was incubated at 37° C. in the dark for 1 h, then 5 μL of Stop Reagent was added.
(§2) The data analysis method is as follows:
(§3) Phosphorylation ratio=1−{(emission ratio×F100%−C100%)/[C0%−C100%+emission ratio×(F100%−F0%)]}×100;
(§4) Inhibition rate=100×(1−compound phosphorylation ratio/negative control phosphorylation ratio).
(§5) The IC50 values were calculated by GraphPad Prism software.

[1] = target: T2, AXL kinase domain recombinant protein (Homo sapiens, UniProt P30530); test: AXL kinase inhibition, ELISA; conditions: ATP 5 μM
T2 construct: the AXL kinase domain recombinant protein (eurofins, 14-512); purchased eurofins 14-512
T2 sequence (P30530 536-807 limits assumed): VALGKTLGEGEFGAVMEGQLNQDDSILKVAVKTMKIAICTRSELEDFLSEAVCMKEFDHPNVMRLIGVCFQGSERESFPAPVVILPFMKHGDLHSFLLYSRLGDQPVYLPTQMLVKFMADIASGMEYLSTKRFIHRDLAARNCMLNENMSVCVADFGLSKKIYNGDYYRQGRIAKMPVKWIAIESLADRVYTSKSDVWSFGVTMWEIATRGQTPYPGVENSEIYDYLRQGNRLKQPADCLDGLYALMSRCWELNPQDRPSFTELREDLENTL
Procedure: Detection of the activity of kinase: Enzyme-linked immunosorbent assay (ELISA) technology was used to detect the inhibitory activities of the compounds against the kinase. […] After the liquid in the well was discarded, the plate was washed three times with T-PBS (PBS containing 0.1% Tween-20), 200 μL T-PBS per well, 5 minutes for each time. The enzyme label plate was dried in an oven at 37° C. for 1-2 hours. To each well was added 50 μL of ATP solution diluted with reaction buffer (50 mM HEPES, pH 7.4, 50 mM MgCl2, 0.5 mM MnCl2, 0.2 mM Na3VO4, 1 mM DTT) with a final concentration of 5 μM. […] Two wells with no enzyme for control are required for each experiment. The plate was incubated on a shaker (100 rpm) at 37° C. and reacted for 1 hour. The plate was washed three times with T-PBS. 100 μ/well of primary antibody PY99 dilution was added and the plate was reacted in a shaker at 37° C. for 0.5 hour. The plate was washed three times with T-PBS. 100 μ/well of secondary antibody horseradish peroxidase-labeled goat anti-mouse IgG dilution was added and the plate was reacted in a shaker at 37° C. for 0.5 hour. The plate was washed three times with T-PBS. 2 mg/ml of OPD color solution was added with 100 μ/well (diluted with 0.1 M citric acid-sodium citrate buffer (pH=5.4) containing 0.03% H2O2), and the plate was reacted at 25° C. in the dark for 1-10 minutes. (Ultrasound is required for the dissolution of OPD, and the color solution needs to be prepared for immediate use). 50 μ/well of 2 M H2SO4 was added to stop the reaction, and the wavelength-adjustable enzyme-labeling instrument SPECTRA MAX 190 was used to read the data at a wavelength of 490 nm.
The inhibition rate of the sample was obtained by the following formula: […]
The IC50 values were obtained by regression with the four-parameter method using the software attached to the enzyme-labeling instrument.

AXL kinase = target: T3, AXL kinase (Homo sapiens, UniProt P30530); test: AXL kinase inhibition, Z'-LYTE FRET; conditions: ATP 50 μM
T3 construct: purchased eurofins 14-500
T3 sequence (P30530 473-894 limits assumed): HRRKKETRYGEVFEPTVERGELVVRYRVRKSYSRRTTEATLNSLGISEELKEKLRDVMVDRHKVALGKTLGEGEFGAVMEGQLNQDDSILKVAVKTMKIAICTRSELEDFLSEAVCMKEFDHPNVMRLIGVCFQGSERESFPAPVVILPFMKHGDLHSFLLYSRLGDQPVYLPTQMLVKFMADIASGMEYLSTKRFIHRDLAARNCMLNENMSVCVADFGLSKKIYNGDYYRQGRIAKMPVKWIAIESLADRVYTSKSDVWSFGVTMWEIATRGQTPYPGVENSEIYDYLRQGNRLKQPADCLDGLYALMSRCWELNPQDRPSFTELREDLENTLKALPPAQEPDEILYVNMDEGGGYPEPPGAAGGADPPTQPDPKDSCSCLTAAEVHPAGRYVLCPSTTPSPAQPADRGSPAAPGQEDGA
Excerpt: as §1, with “AXL” for “Flt3”, “(eurofins, 14-500)” for “(life, PV6253)”, “6” for “2”, “PV4122).” for “PV3191).”
Enzymatic reaction: To a 384-well plate was added 5 μL of enzyme-substrate system (50 mM HEPES, pH 6.5, 0.01% BRU-35, 10 mM MgC2, 1 mM EGTA, 0.02% NaNA), and 5 nL of a compound (concentration gradient) was transferred thereto using an echo520 ultramicro-liquid pipetting system. After the plate was shaken at room temperature for 10-20 min, 25 nL of ATP (a final concentration of 50 μM) was transferred thereto using the echo520 ultramicro-liquid pipetting system. After shaking and well mixing, the mixture was centrifuged and reacted at 30° C. in the dark for 1.5 h.
as §2, §3, §4, §5

Row | SMILES | IC50 (Flt3 kinase) [nM] | IC50 [1] [nM] | IC50 (AXL kinase) [nM]
1 | COc1cc2c(Oc3ccc(NC(=O)c4c(C)n(C)c5ccc(OC(F)(F)F)cc5c4=O)cc3F)ccnc2cc1OCCCN1CCOCC1 [CCB-310, N-(3-fluoro-4-((6-methoxy-7-(3-morpholinopropoxy)quinolin-4-yl)oxy)phenyl)-1,2-dimethyl-4-oxo-6-(trifluoromethoxy)-1,4-dihydroquinoline-3-carboxamide] | 9.5 | 1.8 | 
2 | COCCOc1cc2ncnc(Oc3ccc(NC(=O)c4c(C)n(C)c5ccc(OC(F)(F)F)cc5c4=O)cc3F)c2cc1OCCOC [TL-197, N-(4-((6,7-bis(2-methoxyethoxy)quinazolin-4-yl)oxy)-3-fluorophenyl)-1,2-dimethyl-4-oxo-6-(trifluoromethoxy)-1,4-dihydroquinoline-3-carboxamide] | 4.7 | 4.2 | 
3 | COc1cc2ncnc(Oc3ccc(NC(=O)c4c(C)n(C)c5ccc(OC(F)(F)F)cc5c4=O)cc3F)c2cc1OC [TL-198, N-(4-((6,7-dimethoxyquinazolin-4-yl)oxy)-3-fluorophenyl)-1,2-dimethyl-4-oxo-6-(trifluoromethoxy)-1,4-dihydroquinoline-3-carboxamide] | 2.3 | 2.1 | 
4 | COCCCOc1cc2c(Oc3ccc(NC(=O)c4c(C)n(C)c5ccc(OC(F)(F)F)cc5c4=O)cc3F)ncnc2cc1OC [TL-199, N-(3-fluoro-4-((7-methoxy-6-(3-methoxypropoxy)quinazolin-4-yl)oxy)phenyl)-1,2-dimethyl-4-oxo-6-(trifluoromethoxy)-1,4-dihydroquinoline-3-carboxamide] | 25.8 | 1.8 | 
5 | COCCCCOc1cc2ncnc(Oc3ccc(NC(=O)c4c(C)n(C)c5ccc(OC(F)(F)F)cc5c4=O)cc3F)c2cc1OC [TL-204, N-(3-fluoro-4-((6-methoxy-7-(4-methoxybutoxy)quinazolin-4-yl)oxy)phenyl)-1,2-dimethyl-4-oxo-6-(trifluoromethoxy)-1,4-dihydroquinoline-3-carboxamide] | 11.2 | 1.6 | 
6 | COc1cc2c(Oc3ccc(NC(=O)c4c(C)n(C)c5ccc(OC(F)(F)F)cc5c4=O)cc3F)ncnc2cc1OCCN1CCOCC1 [TL-209, N-(3-fluoro-4-((6-methoxy-7-(2-morpholinoethoxy)quinazolin-4-yl)oxy)phenyl)-1,2-dimethyl-4-ox o-6-(trifluoromethoxy)-1,4-dihydroquinoline-3-carboxamide] | 9.2 | 2 | 
7 | COc1cc2c(Oc3ccc(NC(=O)c4c(C)n(C)c5ccc(OC(F)(F)F)cc5c4=O)cc3F)ncnc2cc1OCCCN1CCCC1 [TL-212, N-(3-fluoro-4-((6-methoxy-7-(3-(pyrrolidin-1-yl)propoxy)quinazolin-4-yl)oxy)phenyl)-1,2-dimethy 1-4-oxo-6-(trifluoromethoxy)-1,4-dihydroquinoline-3-carboxamide] | 5.2 | 1.5 | 
8 | COc1cc2c(Oc3ccc(NC(=O)c4c(C)n(C)c5ccc(OC(F)(F)F)cc5c4=O)cc3F)ncnc2cc1OCCN1CCCCC1 [TL-213, N-(3-fluoro-4-((6-methoxy-7-(2-(piperidin-1-yl)ethoxy)quinazolin-4-yl)oxy)phenyl)-1,2-dimethyl-4-oxo-6-(trifluoromethoxy)-1,4-dihydroquinoline-3-carboxamide] | 6.4 | 2.2 | 
9 | COc1cc2c(Oc3ccc(NC(=O)c4c(C)n(C)c5ccc(OC(F)(F)F)cc5c4=O)cc3F)ncnc2cc1OCCCN1CCCCC1 [TL-216, N-(3-fluoro-4-((6-methoxy-7-(3-(piperidin-1-yl)propoxy)quinazolin-4-yl)oxy)phenyl)-1,2-dimethyl-4-oxo-6-(trifluoromethoxy)-1,4-dihydroquinoline-3-carboxamide] |  |  | 1.5
10 | COCCCOc1cc2ncnc(Oc3ccc(NC(=O)c4c(C)n(C)c5ccc(OC(F)(F)F)cc5c4=O)cc3F)c2cc1OC [TL-226, N-(3-fluoro-4-((6-methoxy-7-(3-methoxypropoxy)quinazolin-4-yl)oxy)phenyl)-1,2-dimethyl-4-oxo-6-(trifluoromethoxy)-1,4-dihydroquinoline-3-carboxamide] |  |  | 4.7
11 | COc1cc2c(Oc3ccc(NC(=O)c4c(C)n(C)c5ccc(OC(F)(F)F)cc5c4=O)cc3F)ncnc2cc1OCCC(C)C [TL-230, N-(3-fluoro-4-((7-(isopentyloxy)-6-methoxyquinazolin-4-yl)oxy)phenyl)-1,2-dimethyl-4-oxo-6-(trifluoromethoxy)-1,4-dihydroquinoline-3-carboxamide] |  |  | 59.4
